Reference: patent US9463256B2, “Pretargeting kit, method and agents used therein” (KONINKLIJKE PHILIPS N.V., priority 2010, dated 2016)

Tests used:
[1] = In vitro reaction yields of CC49-bound TCO with tetrazine probe 28 at low concentration; type: physicochemical; details: TCO conjugated to CC49; 1 min at 37° C. in PBS; micromolar concentrations and lower
Experimental: To this aim we used a TCO major 20a (k2=19600±1400 M^−1s^−1) and a TCO minor 20b (k2=136700±2300 M^−1s^−1) conjugated to CC49 (6.1 and 6.6 TCOs per molecule for major and minor, respectively). The two mAb solutions were diluted in PBS to obtain TCO concentrations ranging from 1×10^−5M to 1×10^−8M and were reacted with carrier-added ^177Lu-tetrazine (1 eq. with respect to mAb) for 1 min at 37° C. Aliquots of the reaction mixtures (20 μl) where then quenched with an excess of tetrazine 6, added with non-reducing sample buffer and analyzed by SDS-PAGE. The cycloaddition yields were determined from the radioactivity in the bands corresponding to the mAb and the counts were quantified with the AIDA Image Analyzer software. The experiments were repeated in triplicate. As expected for a bimolecular reaction, a decrease in the concentration of the two reactive species in solution translates into lower reaction yields after 1 min incubation (FIG. 18).

[2] = Trans-cyclooctene stability in vivo (blood samples reacted with excess ^111In-tetrazine 28); set-up: species or system mice; details: tumor-free mice, up to 4 days post injection
Experimental: Tumor-free mice (n=3 per group) were injected intravenously with CC49-PEG10-TCO-O major (CC49-23a; 8.4 TCO per CC49; 300 μg/100 μL per mouse), CC49-PEG10-TCO-C minor (CC49-27b; 3.3 TCO per CC49, […]), and CC49-TCO-O major without spacer (CC49-20a; 8.0 TCO per CC49, 300 μg/100 μL per mouse). At selected time points (from 1 hour up to 4 days post injection) blood samples were withdrawn from the vena saphena and collected in vials containing heparin. The blood samples were weighed and an excess ^111In-tetrazine 28 was added. After 20 min incubation at 37° C., blood aliquots were 10-fold diluted with PBS and analyzed by SDS-PAGE. The cycloaddition yields were determined from the radioactivity in the bands corresponding to the mAb and the counts were quantified with AIDA Image Analyzer software. The amount of mAb present in blood at each time point (% ID/g blood) was evaluated in three separate groups of mice (n=3), which were injected with the corresponding ^125I—CC49-TCO (300 μg/100 μL per mouse, ca. 0.2 MBq). The data, corrected for mAb clearance, were normalized to 100% ID TCO at t=0.
This experiment was carried out to expand the series of in vivo TCO stability measurements described in Example 6. […] In the new experiment, following the same procedure, we tested the in vivo stability of a CC49-bound TCO minor without PEG spacer (20b, 6.9 equivalents bound).

[3] = Second order kinetic constants of the reactions between CC49-TCO constructs and ^177Lu-28; type: physicochemical; details: TCO conjugated to CC49, reaction with ^177Lu-28 in PBS, pH 7.4 at 37° C.
Experimental: Typically, 1 mg CC49 (5 mg/mL solution in PBS) was modified with 0.6 molar (for kinetic measurements) or 10 molar eq. (for in vivo studies) of TCO-NHS constructs in a total volume of 250 μL PBS. The pH was adjusted to 9 with 1 M sodium carbonate buffer. The reactions were carried out under agitation for 30 min at RT in the dark. Subsequently, the TCO-modified mAbs were extensively washed with PBS using Amicon Ultra-15 centrifugal devices. The numbers of TCO groups per antibody were determined with a tetrazine titration, outlined below.
Tetrazine-DOTA 28 was radiolabeled with carrier-added ^177Lu. mAb (25 μg) modified with ca. 0.6 molar eq. TCO was reacted with 3 molar eq. of ^177Lu-28 (0.5 nM). mAb (25 μg) modified with ca. 10 molar eq. TCO was reacted with 15 molar eq. of ^177Lu-28 (2.5 nM). The reactions were carried out in 50 μL PBS pH 7.4 at 37° C. for 10 min. The reaction mixtures were analyzed by SDS-PAGE and phosphor imager and the reaction yields were determined from the radioactivity in the bands corresponding to the mAb. The counts were quantified with AIDA Image Analyzer software (Raytest).
Tetrazine-DOTA 28 was radiolabeled with carrier-added ^177Lu at a specific activity of 3 MBq/μg. ^177Lu-28 (33 nM) was reacted with increasing concentrations of CC49 modified with 1 eq. of TCO (0.33, 1, and 1.67 μM) in 200 μL PBS, pH 7.4 at 37° C. for 5 min. At selected times (15, 30, 45, 60, 90, 120, 180, and 300 sec) a 20 μL sample was withdrawn and quenched with tetrazine 6 (FIG. 5; described in Rossin et al. Angew Chem Int Ed 2010, 49, 3375) (1.5 μL, 5 mg/mL in DMF). Aliquots of each mixture were analyzed by SDS-PAGE and phosphor imager and the cycloaddition yields were determined from the radioactivity in the bands corresponding to the mAb. The counts were quantified with AIDA Image Analyzer software (Raytest).
The newly synthesized TCO constructs were evaluated with respect to their reactivity towards tetrazine 28. The procedures are described in Example 5.

[4] = Reactivity of tetrazines, competition experiment against reference tetrazine; type: physicochemical; details: reference 3-(5-acetamido-2-pyridyl)-6-(2-pyridyl)-1,2,4,5-tetrazine; reaction with 10b
Experimental: A competition experiment was performed to determine the reactivity ratio of a specific tetrazine and 3-(5-acetamido-2-pyridyl)-6-(2-pyridyl)-1,2,4,5-tetrazine (that was chosen as the reference tetrazine), in the inverse-electron demand Diels-Alder reaction with trans-cyclooct-4-ene-1-ol (minor isomer, 10b).
To acetonitrile (0.100 mL) was added 5 μL of a solution of the specific tetrazine in DMSO (25 mM) and 5 μL of a solution of the reference tetrazine in DMSO (25 mM). This mixture was diluted with water (0.9 mL), and the absolute amounts of both tetrazines were determined by LC-MS/PDA analysis. Subsequently, a solution of trans-cyclooct-4-ene-1-ol (minor isomer, 10b) in DMSO (25 μL 2.5 mM) was added, and the mixture was stirred for 5 min. Again, the absolute amounts of both tetrazines were determined by LC-MS/PDA analysis, and conversions for both tetrazines was calculated. From these conversions, the reactivity ratio of both tetrazines was determined.

| Compound | reaction yields with ^177Lu-tetrazine versus equatorial TCO 20a [1] | in vivo stability of CC49-bound TCO (reactive TCO in blood, corrected for mAb clearance) [2] | Second order kinetic constant, PEG10 Spacer [3] | k2/k2 ref [4] |
| --- | --- | --- | --- | --- |
| O=C(ON1C(=O)CCC1=O)c1ccc(COC2CC/C=C/CCC2)cc1 (stereo not shown) [20b, (E-minor)-2,5-Dioxopyrrolidin-1-yl 4-((cyclooct-4-enyloxy)methyl)benzoate] | significantly higher | only slowly degrade in vivo | – | – |
| O=C(CCOCCOCCOCCOCCOCCOCCOCCOCCOCCOCCOCCOCCNC(=O)c1ccc(COC2CC/C=C/CCC2)cc1)ON1C(=O)CCC1=O (stereo not shown) [23a, (E-major)-2,5-Dioxopyrrolidin-1-yl 1-(4-((cyclooct-4-en-1-yloxy)methyl)phenyl)-1-oxo-5,8,11,14,17,20,23,26,29,32,35,38-dodecaoxa-2-azahentetracontan-41-oate] | – | unstable in vivo | (23a) 16500 ± 1400 M^−1s^−1 | – |
| O=C(CCOCCOCCOCCOCCOCCOCCOCCOCCOCCOCCOCCOCCNC(=O)c1ccc(NC(=O)OC2CC/C=C/CCC2)cc1)ON1C(=O)CCC1=O (stereo not shown) [27b, (E-minor)-2,5-dioxopyrrolidin-1-yl 1-(4-(((cyclooct-4-en-1-yloxy)carbonyl)amino)phenyl)-1-oxo-5,8,11,14,17,20,23,26,29,32,35,38-dodecaoxa-2-azahentetracontan-41-oate] | – | unstable in vivo | (27b) 111600 ± 1800 M^−1s^−1 | – |
| CCCC(=O)Nc1ccc(-c2nnc(-c3ccc(C(F)(F)F)cn3)nn2)nc1 [compound 35, 3-(5-Butyramido-2-pyridyl)-6-(5-(trifluoromethyl)-2-pyridyl)-1,2,4,5-tetrazine] | – | – | – | 1.84 |
| CCCC(=O)Nc1ccc(-c2nnc(-c3ccc(F)cn3)nn2)nc1 [compound 38, 3-(5-Fluoro-2-pyridyl)-6-(5-butanamido-2-pyridyl)-1,2,4,5-tetrazine] | – | – | – | 0.95 |
| Cc1nnc(-c2ccccn2)nn1 [compound 40, 3-(2-Pyridyl)-6-methyl-1,2,4,5-tetrazine] | – | – | – | 0.25 |
| c1cc(-c2nnc(-c3ccncc3)nn2)ccn1 [compound 42, 3,6-Bis(4-pyridyl)-1,2,4,5-tetrazine] | – | – | – | 0.83 |
